Source: patent publication US20110311532A1, “INHIBITION OF COMPLEMENT AND CELLULAR ACTIVATION” (priority 2007, published 2011)
Positions of bridges follow the written chain, without caps; N, C: chain ends. Non-standard residues stand in square brackets, D forms with d. Residues, ends and D or L forms follow the SMILES beside them. hArg = N=C(N)NCCCC[C@H](N)C(=O)O; Mpa = O=C(O)CCS

B1: Abciximab (antibody, chains of the INN, looked up, V domains shown)
VH: EVQLQQSGTVLARPGASVKMSCEASGYTFTNYWMHWVKQRPGQGLEWIGAIYPGNSDTSYIQKFKGKAKLTAVTSTTSVYMELSSLTNEDSAVYYCTLYDGYYVFAYWGQGTLVTVSA
VL: EIVLTQSPVTLSVTPGDSVSLSCRASRDISNNLHWFQQTSHESPRLLIKYASQSMSGIPSRFSGSGSGTDFTLSINSVETEDFGMYFCQQTNSWPYTFGGGTKLEIK
modifications: Fab
notes: monoclonal F(ab) fragment GPIIb/IIIa antagonist

Assays:
[1] = tested on: monocytes; experiment: Tubing loop model, monocyte activation by flow cytometry (CD14/CD11b); type: cell-based, human; conditions: anti-platelet agent in combination with NM4047
Method: (§1) In the following examples, heparinized whole blood from a donor volunteer was circulated in a PVC tubing at 37° C. to allow complement and cellular activation. It is known that alternative complement pathway is activated when blood comes in contact with the artificial surface of the PVC tubing. As a result, complement is activated to release inflammatory molecules. These inflammatory molecules activate neutrophils, monocytes and platelets. The monoclonal antibody NM4047, inhibits complement activation in vitro in human serum. NM4047 inhibits C3a, C5a, and C5b-9 in whole blood in the tubing loop model. […] We attributed these findings to the Fc region on the IgG1. Removal of Fc domain with Ficin generated an F(ab′)2 molecule which inhibited C3a, C5a, C5b-9.
(§2) NM4047 is an IgG1 monoclonal antibody that was identified as a blocker of alternative complement pathway activation. The monoclonal antibody was evaluated for inhibition of complement and cellular activation in a whole blood based extracorporeal circulation model. In this model, whole heparinzed human blood was diluted with plasmalyte and circulated in a PVC tubing loop for 2 h at 37° C. to allow complement activation to occur. A total of 21 tubing loops were prepared. […] Nine tubing loops received 400 μg/ml concentration of NM4047 and the other nine received 100 μg/ml concentration of NM4047. Tubing loops were then rotated for 2 h at 37° C. Following the rotation, aliquots of the blood were stained for flow cytometry for the evaluation of cellular activation. A separate aliquot of blood was centrifuged to separate plasma, which was used for measuring complement activation products in ELISA. […] Cellular activation was evaluated using flow cytometry methods. […] Cell populations were read in the BD-LSR 1 and Cell Quest software. The raw data taken from Cell Quest were analyzed using Win List software from Verity, populations were measured using Ln Median shifts in the activation marker in the case of neutrophils and monocytes, and population percentage shifts for platelets. […]

[2] = tested on: neutrophils; experiment: Tubing loop model, neutrophil activation by flow cytometry (CD15/CD11b); type: cell-based, human; conditions: anti-platelet agent in combination with NM4047
Method: as §1, §2

[3] = tested on: platelets; experiment: Tubing loop model, platelet activation by flow cytometry (CD61/CD62P); type: cell-based, human; conditions: for effect on Fc mediated platelet activation (CD62P): anti-platelet agent at various concentrations with 400 μg/ml NM4047
Method: as §1
NM4047 is an IgG1 monoclonal antibody that was identified as a blocker of alternative complement pathway activation. The monoclonal antibody was evaluated for inhibition of complement and cellular activation in a whole blood based extracorporeal circulation model. In this model, whole heparinzed human blood was diluted with plasmalyte and circulated in a PVC tubing loop for 2 h at 37° C. to allow complement activation to occur. A total of 21 tubing loops were prepared. […] Nine tubing loops received 400 μg/ml concentration of NM4047 and the other nine received 100 μg/ml concentration of NM4047. Tubing loops were then rotated for 2 h at 37° C. Following the rotation, aliquots of the blood were stained for flow cytometry for the evaluation of cellular activation. A separate aliquot of blood was centrifuged to separate plasma, which was used for measuring complement activation products in ELISA. […] However, activation of neutrophils, monocytes, and platelets was not inhibited. Cellular activation was evaluated using flow cytometry methods. Aliquots of blood sample were stained with FITC labeled CD15 for neutrophils, FITC labeled CD14 for monocytes, and FITC labeled CD61 for Platelets. The cells were also stained with activation markers PE labeled CD11b for neutrophils and monocytes, and PE labeled CD62P for platelets. The staining was done in three groups, one group containing CD15/CD11b, second group contained CD14/CD11b, and the third group contained CD61/CD62P antibodies. Following staining, the cells were lysed with lysis buffer, centrifuged to pellet the cells. After a quick wash with 1% BSA/PBS, the cells were suspended in 1% paraformaldehyde buffer. Cell populations were read in the BD-LSR 1 and Cell Quest software. The raw data taken from Cell Quest were analyzed using Win List software from Verity, populations were measured using Ln Median shifts in the activation marker in the case of neutrophils and monocytes, and population percentage shifts for platelets. The data was then plotted on MicroCal Origin software. […] The lack of cellular inhibition could only be explained by the fact that the IgG1 had the Fc region. To determine if the predicted Fc is the cause of the observed cellular activation, IgG1 was digested with Ficin protease.
NM4047 (IgG1) monoclonal antibody was evaluated for inhibition of complement and cellular activation in a whole blood based extracorporeal circulation model in the presence of ReoPro. ReoPro is a GPIIbIIIa monoclonal antibody that binds resting and activated platelets. In this experiment, heparinzed human blood was diluted with plasmalyte and circulated in a PVC tubing loop for 2 h at 37° C. to allow complement activation to occur. A total of 21 tubing loops were prepared. […] Nine tubing loops received 400 μg/ml concentration of NM4047 and the other nine received 100 μg/ml concentration of NM4047. All samples other than controls received 10 μg/ml of ReoPro (clinical material). All tubing loops were then rotated for 2 h at 37° C. Following the rotation, aliquots of the blood were stained for flow cytometry for the evaluation of cellular activation. […]

[4] = tested on: complement activation; experiment: Tubing loop model, overall complement activation or inhibition; type: biochemical, human; conditions: anti-platelet agent in combination with NM4047
Method: as §2, with “activation.” for “activation. A separate aliquot of blood was centrifuged to separate plasma, which was used for measuring complement activation products in ELISA.”
NM4047 (IgG1) monoclonal antibody was evaluated for inhibition of complement and cellular activation in a whole blood based extracorporeal circulation model in the presence of ReoPro. […] Cellular activation was evaluated using flow cytometry methods. […]

[5] = tested on: erythrocytes; experiment: Hemolysis of erythrocytes in tubing loop experiments; type: cell-based, human; conditions: high concentration doses; tested at 5-50 μg/ml
Text: In this example, we evaluated the effects of Aspirin a commonly used inhibitor of platelet activation. Aspirin is also used as a standard of care for cardiac procedures. […] The tubing loop experiments presented in various examples above remained the same. The only difference was in the type of test agent used across these experiments. While good results were noticed with ReoPro and Aggrastat, the cost of such drugs may be prohibitive. In such cases, aspirin may become a viable option.

Molecule | effect on monocyte activation [1] | effect on neutrophil activation [2] | effect on Fc mediated platelet activation (CD62P) [3] | concentration achieving complete inhibition of platelet activation ([3]; with 400 μg/ml NM4047, 1 to 20 μg/ml tested) [µg/mL] | effect on level of complement inhibition by NM4047 [4] | hemolysis of erythrocytes [5] | total platelet activation ([3]; Integrillin 100 μg/ml with 400 μg/ml NM4047) | inhibition of platelet activation ([3]; ReoPro 10 μg/ml with NM4047 400 or 100 μg/ml) [%] | platelet activation in samples containing IgG2 antibody ([3]; ReoPro together with IgG2 antibody) | concentration at which effect on platelet inhibition starts to vanish ([3]; with 400 μg/ml NM4047) [µg/mL]
CCCCS(=O)(=O)N[C@@H](Cc1ccc(OCCCCC2CCNCC2)cc1)C(=O)O [Aggrastat, Tirofiban] | no effect | no effect | highly potent | 1 | – | – | – | – | – | –
CC(=O)Oc1ccccc1C(=O)O [Aspirin] | only partial effect | only partial effect | inhibits | – | did not alter | caused hemolysis | – | – | – | –
N=C(N)NCCCC[C@@H]1NC(=O)CCSSC[C@@H](C(N)=O)NC(=O)[C@@H]2CCCN2C(=O)[C@H](Cc2c[nH]c3ccccc23)NC(=O)[C@H](CC(=O)O)NC(=O)CNC1=O [Integrillin, Eptifibatide] ([Mpa][hArg]GDWPC-NH2; disulfide 1-7) | – | – | does not inhibit | – | – | – | at least 4 fold | – | – | –
B1 | does not inhibit | does not inhibit | dose dependent | – | did not affect | – | – | ~100 | inhibited | 0.5
